Test results taken from patent EP4745137A1 (Gluetacs Therapeutics (Shanghai) Co., Ltd., priority 2023, dated 2025).

How the values were obtained:
WEE1 = biological target: T1, WEE1 (Homo sapiens, UniProt P30291+Q96SW2); assay: Western-blot assay of substrate protein degradation in hPBMCs, WEE1; assay type: cell-based; conditions: 24 hours of compound treatment, compounds tested at 50 nM and 500 nM (concentration of the table not stated)
T1 construct: endogenous in cells; host or cells: hPBMCs (Milecell Biotechnologies)

SR = assay: Tumor cell proliferation inhibition (CellTiter-Meiluncell Luminescent Cell Viability Assay), SR; conditions: Homo sapiens, 96 h, read-out: inhibitory activity (IC50, nM) against tumor cells proliferation, SR
[1] = biological target: T2, human Cereblon WT GST-tagged protein (Homo sapiens, UniProt Q96SW2); assay: CRBN-binding affinity by HTRF (CEREBLON BINDING kit); conditions: HTRF inhibitory activity, CEREBLON BINDING kit; read-out: HTRF IC50
T2 construct: purchased CISBIO 64BDCRBNPEH

IKZF2 = biological target: T3, IKZF2 (Homo sapiens, UniProt Q96SW2+Q9UKS7); assay: Western-blot assay of substrate protein degradation in hPBMCs, IKZF2; assay type: cell-based; conditions: 24 hours of compound treatment, compounds tested at 50 nM and 500 nM (concentration of the table not stated)
T3 construct: endogenous in cells; host or cells: hPBMCs (Milecell Biotechnologies)

IKZF1 = biological target: T4, IKZF1 (Homo sapiens, UniProt Q13422+Q96SW2); assay: Western-blot assay of substrate protein degradation in hPBMCs, IKZF1; assay type: cell-based; conditions: 24 hours of compound treatment, compounds tested at 50 nM and 500 nM (concentration of the table not stated)
T4 construct: endogenous in cells; host or cells: hPBMCs (Milecell Biotechnologies)

SW620 = assay: Tumor cell proliferation inhibition (CellTiter-Meiluncell Luminescent Cell Viability Assay), SW620; conditions: Homo sapiens, SW-620, 96 h, read-out: inhibitory activity (IC50, nM) against tumor cells proliferation, SW620
[2] = system: Human breast cancer cells (MDA-MB-231); assay: Tumor cell proliferation inhibition (CellTiter-Meiluncell Luminescent Cell Viability Assay), MDA-MB-231; conditions: MDA-MB-231, 96 h, read-out: inhibitory activity (IC50, nM) against tumor cells proliferation, MDA-MB-231
Description: (§1) The tumor cells used herein were cultured in a cell culture medium listed in table 2 at 37°C in an incubator with 5% CO2. Prior to experimentation, all cell lines used were correctly identified by STR profiling, and tested negative for mycoplasma contamination using a mycoplasma detection kit through routine screenings.
(§2) On the following day, the test compounds of the present disclosure were subjected to serial dilution. […] Subsequently, 0.5 µL of the test compound dilution was transferred into the 96-well plate containing the cells, with each well containing 100 µL of cell culture medium. […] Into the 96-well plate, the diluted test compounds and corresponding detection reagents were added, resulting in final test compound concentrations of 500 nM and 10 nM, respectively. The experimental procedure is described below using the diluted 2 µM test compound as an example.
(§3) After the cells were treated with the compounds of the present disclosure for a specified period (the treatment durations were shown in Table 3), the cell viability assay reagent was added to the culture medium according to the kit's instructions to determine cell viability. […] All controls were treated using the same procedure as the compounds of the present disclosure. The growth inhibition curves for the compounds of the present disclosure were plotted using Prism GraphPad software, and the IC50 values were calculated therefrom.

CCRF-CEM = assay: Tumor cell proliferation inhibition (CellTiter-Meiluncell Luminescent Cell Viability Assay), CCRF-CEM; conditions: Homo sapiens, 96 h, read-out: inhibitory activity (IC50, nM) against tumor cells proliferation, CCRF-CEM
CAL-62 = assay: Tumor cell proliferation inhibition (CellTiter-Meiluncell Luminescent Cell Viability Assay), CAL-62; conditions: Homo sapiens, CAL-62, 96 h, read-out: inhibitory activity (IC50, nM) against tumor cells proliferation, CAL-62
Vcap = assay: Tumor cell proliferation inhibition (CellTiter-Meiluncell Luminescent Cell Viability Assay), Vcap; conditions: Homo sapiens, 96 h, read-out: inhibitory activity (IC50, nM) against tumor cells proliferation, Vcap
Description: as §1, §2, §3

IKZF3 = biological target: T5, IKZF3 (Homo sapiens, UniProt Q96SW2+Q9UKT9); assay: Western-blot assay of substrate protein degradation in hPBMCs, IKZF3; assay type: cell-based; conditions: 24 hours of compound treatment, compounds tested at 50 nM and 500 nM (concentration of the table not stated)
T5 construct: endogenous in cells; host or cells: hPBMCs (Milecell Biotechnologies)

GSPT1 = biological target: T6, GSPT1 (Homo sapiens, UniProt P15170+Q96SW2); assay: Western-blot assay of substrate protein degradation in hPBMCs, GSPT1; assay type: cell-based; conditions: 24 hours of compound treatment, compounds tested at 50 nM and 500 nM (concentration of the table not stated)
T6 construct: endogenous in cells; host or cells: hPBMCs (Milecell Biotechnologies)

[3] = system: Human acute T lymphocytic leukemia cells (Molt-4); assay: Tumor cell proliferation inhibition (CellTiter-Meiluncell Luminescent Cell Viability Assay), Molt-4; conditions: MOLT-4, 96 h, read-out: inhibitory activity (IC50, nM) against tumor cells proliferation, Molt 4
Jurkat = assay: Tumor cell proliferation inhibition (CellTiter-Meiluncell Luminescent Cell Viability Assay), Jurkat; conditions: Homo sapiens, 96 h, read-out: inhibitory activity (IC50, nM) against tumor cells proliferation, Jurkat
MM.1R = assay: Tumor cell proliferation inhibition (CellTiter-Meiluncell Luminescent Cell Viability Assay), MM.1R; conditions: Homo sapiens, 96 h, read-out: inhibitory activity (IC50, nM) against tumor cells proliferation, MM.1R
CK1α = biological target: T7, CK1α (Homo sapiens, UniProt P48729+Q96SW2); assay: Western-blot assay of substrate protein degradation in hPBMCs, CK1α; assay type: cell-based; conditions: 24 hours of compound treatment, compounds tested at 50 nM and 500 nM (concentration of the table not stated)
T7 construct: endogenous in cells; host or cells: hPBMCs (Milecell Biotechnologies)

MGC803 = assay: Tumor cell proliferation inhibition (CellTiter-Meiluncell Luminescent Cell Viability Assay), MGC803; conditions: Homo sapiens, MGC-803, 96 h, read-out: inhibitory activity (IC50, nM) against tumor cells proliferation, MGC803
Description: as §1
On the following day, the test compounds of the present disclosure were subjected to serial dilution. […] Subsequently, 0.5 µL of the test compound dilution was transferred into the 96-well plate containing the cells, with each well containing 100 µL of cell culture medium. […] Into the 96-well plate, the diluted test compounds and corresponding detection reagents were added, resulting in final test compound concentrations of 500 nM and 10 nM, respectively.
as §3

NCI-H1975 = assay: Tumor cell proliferation inhibition (CellTiter-Meiluncell Luminescent Cell Viability Assay), NCI-H1975; conditions: Homo sapiens, NCI-H1975, 96 h, read-out: inhibitory activity (IC50, nM) against tumor cells proliferation, H1975

T4 sequence (Q13422 whole entry): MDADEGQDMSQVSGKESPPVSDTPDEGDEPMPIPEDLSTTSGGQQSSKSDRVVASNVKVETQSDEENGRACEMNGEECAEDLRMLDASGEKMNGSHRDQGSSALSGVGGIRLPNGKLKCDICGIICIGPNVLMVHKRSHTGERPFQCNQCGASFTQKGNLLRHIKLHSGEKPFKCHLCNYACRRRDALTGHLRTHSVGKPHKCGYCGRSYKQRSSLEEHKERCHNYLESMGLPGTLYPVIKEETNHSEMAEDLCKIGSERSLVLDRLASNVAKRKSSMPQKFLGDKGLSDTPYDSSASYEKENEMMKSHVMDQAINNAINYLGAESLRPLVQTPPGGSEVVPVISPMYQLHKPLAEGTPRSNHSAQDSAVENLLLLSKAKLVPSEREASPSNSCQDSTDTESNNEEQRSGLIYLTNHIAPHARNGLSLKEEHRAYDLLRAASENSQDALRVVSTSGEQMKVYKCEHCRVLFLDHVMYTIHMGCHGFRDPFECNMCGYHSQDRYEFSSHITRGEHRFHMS
T4 sequence (Q96SW2 whole entry): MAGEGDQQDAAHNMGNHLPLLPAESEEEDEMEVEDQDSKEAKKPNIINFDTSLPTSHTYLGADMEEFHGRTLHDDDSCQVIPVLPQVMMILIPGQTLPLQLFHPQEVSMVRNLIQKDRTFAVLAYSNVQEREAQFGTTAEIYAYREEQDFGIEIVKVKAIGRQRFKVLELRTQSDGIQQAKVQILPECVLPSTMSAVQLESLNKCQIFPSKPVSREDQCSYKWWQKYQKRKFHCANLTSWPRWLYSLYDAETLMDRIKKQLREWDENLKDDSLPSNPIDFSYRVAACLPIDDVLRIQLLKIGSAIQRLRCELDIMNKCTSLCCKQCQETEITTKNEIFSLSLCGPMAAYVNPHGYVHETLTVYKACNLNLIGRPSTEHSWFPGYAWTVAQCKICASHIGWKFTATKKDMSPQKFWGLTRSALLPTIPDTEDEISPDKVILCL
T4 sequence (Q16531 whole entry partner): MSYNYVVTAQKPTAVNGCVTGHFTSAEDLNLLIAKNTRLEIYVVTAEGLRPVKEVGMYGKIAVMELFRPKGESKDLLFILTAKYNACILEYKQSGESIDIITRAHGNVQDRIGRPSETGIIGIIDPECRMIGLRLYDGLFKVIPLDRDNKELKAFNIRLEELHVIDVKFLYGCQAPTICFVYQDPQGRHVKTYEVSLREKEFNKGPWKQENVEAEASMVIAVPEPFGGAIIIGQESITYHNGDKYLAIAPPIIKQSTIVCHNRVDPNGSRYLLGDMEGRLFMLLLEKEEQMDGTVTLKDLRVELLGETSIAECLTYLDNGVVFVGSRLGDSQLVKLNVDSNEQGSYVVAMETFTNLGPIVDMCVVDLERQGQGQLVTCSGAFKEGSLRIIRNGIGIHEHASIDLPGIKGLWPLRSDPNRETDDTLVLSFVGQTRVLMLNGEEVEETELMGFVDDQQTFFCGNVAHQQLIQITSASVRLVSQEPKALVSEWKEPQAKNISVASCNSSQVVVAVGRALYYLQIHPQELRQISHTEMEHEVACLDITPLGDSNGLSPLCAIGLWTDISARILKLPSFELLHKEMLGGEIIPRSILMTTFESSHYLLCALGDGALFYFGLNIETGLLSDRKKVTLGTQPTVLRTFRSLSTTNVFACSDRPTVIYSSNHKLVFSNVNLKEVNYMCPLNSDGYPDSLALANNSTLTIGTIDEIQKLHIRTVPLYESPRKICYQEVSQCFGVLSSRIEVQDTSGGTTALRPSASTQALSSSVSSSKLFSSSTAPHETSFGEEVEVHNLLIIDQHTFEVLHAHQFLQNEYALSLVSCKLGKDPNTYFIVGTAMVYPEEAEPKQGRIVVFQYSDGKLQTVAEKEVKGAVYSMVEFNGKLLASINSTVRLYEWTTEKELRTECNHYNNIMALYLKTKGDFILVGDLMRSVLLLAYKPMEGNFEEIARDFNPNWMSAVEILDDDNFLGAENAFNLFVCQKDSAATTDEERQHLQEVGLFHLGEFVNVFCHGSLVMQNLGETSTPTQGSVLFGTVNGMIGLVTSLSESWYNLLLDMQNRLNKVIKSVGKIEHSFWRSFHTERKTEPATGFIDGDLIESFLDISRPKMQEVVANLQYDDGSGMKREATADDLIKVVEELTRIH
T3 sequence (Q9UKS7 whole entry): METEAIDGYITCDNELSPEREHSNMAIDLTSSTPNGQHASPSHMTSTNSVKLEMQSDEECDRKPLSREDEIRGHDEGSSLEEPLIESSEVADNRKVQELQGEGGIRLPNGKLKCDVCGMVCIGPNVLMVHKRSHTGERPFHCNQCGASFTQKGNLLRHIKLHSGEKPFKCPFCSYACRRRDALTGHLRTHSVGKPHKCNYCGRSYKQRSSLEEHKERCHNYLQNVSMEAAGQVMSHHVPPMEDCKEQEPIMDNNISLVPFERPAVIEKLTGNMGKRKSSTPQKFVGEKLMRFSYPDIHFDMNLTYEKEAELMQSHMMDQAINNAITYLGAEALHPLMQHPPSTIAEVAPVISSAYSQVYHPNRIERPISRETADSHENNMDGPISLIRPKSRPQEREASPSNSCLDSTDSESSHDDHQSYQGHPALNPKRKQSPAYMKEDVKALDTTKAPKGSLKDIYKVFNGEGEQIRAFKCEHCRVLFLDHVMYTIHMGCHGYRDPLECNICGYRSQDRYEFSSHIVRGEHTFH
T3 sequence (Q96SW2 whole entry): as the sequence (Q96SW2 whole entry) above
T3 sequence (Q16531 whole entry partner): as the sequence (Q16531 whole entry partner) above
T1 sequence (P30291 whole entry): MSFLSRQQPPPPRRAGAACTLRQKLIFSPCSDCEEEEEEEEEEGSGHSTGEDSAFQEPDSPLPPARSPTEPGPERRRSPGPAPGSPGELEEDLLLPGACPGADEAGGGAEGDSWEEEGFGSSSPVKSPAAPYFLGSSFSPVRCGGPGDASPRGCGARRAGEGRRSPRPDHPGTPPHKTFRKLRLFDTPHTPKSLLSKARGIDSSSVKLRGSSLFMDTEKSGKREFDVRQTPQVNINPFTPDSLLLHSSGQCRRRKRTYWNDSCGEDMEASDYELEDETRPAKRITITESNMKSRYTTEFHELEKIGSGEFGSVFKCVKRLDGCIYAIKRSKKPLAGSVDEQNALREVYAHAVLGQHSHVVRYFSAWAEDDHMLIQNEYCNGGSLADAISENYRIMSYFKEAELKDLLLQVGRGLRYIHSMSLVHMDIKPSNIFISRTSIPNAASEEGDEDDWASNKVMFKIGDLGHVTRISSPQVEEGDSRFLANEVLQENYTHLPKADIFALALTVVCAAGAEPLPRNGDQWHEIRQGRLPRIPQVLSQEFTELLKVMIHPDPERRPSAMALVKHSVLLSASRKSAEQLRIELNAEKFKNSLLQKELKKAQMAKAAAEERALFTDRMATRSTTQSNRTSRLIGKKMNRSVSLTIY
T1 sequence (Q96SW2 whole entry): as the sequence (Q96SW2 whole entry) above
T1 sequence (Q16531 whole entry partner): as the sequence (Q16531 whole entry partner) above
T7 sequence (P48729 whole entry): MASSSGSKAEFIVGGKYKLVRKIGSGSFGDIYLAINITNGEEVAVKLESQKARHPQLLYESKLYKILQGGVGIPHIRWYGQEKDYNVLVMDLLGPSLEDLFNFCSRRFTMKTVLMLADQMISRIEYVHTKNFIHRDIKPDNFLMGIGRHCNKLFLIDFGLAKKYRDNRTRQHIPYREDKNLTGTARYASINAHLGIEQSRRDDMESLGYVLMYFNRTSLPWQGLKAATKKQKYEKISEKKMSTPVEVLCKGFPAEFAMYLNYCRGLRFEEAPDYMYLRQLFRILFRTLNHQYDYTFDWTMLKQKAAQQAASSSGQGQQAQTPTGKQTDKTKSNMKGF
T7 sequence (Q96SW2 whole entry): as the sequence (Q96SW2 whole entry) above
T7 sequence (Q16531 whole entry partner): as the sequence (Q16531 whole entry partner) above
T5 sequence (Q9UKT9 whole entry): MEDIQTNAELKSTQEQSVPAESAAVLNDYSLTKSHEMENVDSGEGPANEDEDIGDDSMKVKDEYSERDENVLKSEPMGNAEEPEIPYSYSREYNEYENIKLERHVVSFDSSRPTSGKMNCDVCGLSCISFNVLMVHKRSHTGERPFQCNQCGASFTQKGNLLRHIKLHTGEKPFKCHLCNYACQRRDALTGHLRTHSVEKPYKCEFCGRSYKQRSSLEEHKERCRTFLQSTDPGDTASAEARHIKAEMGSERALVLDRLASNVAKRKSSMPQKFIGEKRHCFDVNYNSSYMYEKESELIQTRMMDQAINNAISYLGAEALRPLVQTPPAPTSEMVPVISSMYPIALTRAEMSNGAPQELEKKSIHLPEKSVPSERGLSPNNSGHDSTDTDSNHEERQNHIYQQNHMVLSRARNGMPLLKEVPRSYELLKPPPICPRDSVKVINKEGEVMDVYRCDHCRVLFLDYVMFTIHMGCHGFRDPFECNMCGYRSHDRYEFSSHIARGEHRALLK
T5 sequence (Q96SW2 whole entry): as the sequence (Q96SW2 whole entry) above
T5 sequence (Q16531 whole entry partner): as the sequence (Q16531 whole entry partner) above
T2 sequence (Q96SW2 whole entry): as the sequence (Q96SW2 whole entry) above

SMILES | Weel substrate protein remaining % (WEE1) | IC50 (SR) | IC50 [1] | IKZF2 substrate protein remaining % (IKZF2) | IKZF 1 substrate protein remaining % (IKZF1) | IC50 (SW620) | IC50 [2] | IC50 (CCRF-CEM) | IC50 (CAL-62) | IC50 (Vcap) | IKZF3 substrate protein remaining % (IKZF3) | GSPT1 substrate protein remaining % (GSPT1) | IC50 [3] | IC50 (Jurkat) | IC50 (MM.1R) | CK1a substrate protein remaining % (CK1α) | IC50 (MGC803) | IC50 (NCI-H1975)
Cc1ccc(N2CCN(Cc3ccc4c(c3)CN(C3CCC(=O)NC3=O)C4=O)CC2)cc1 (stereo not shown) [GT-04463, 3-(1-oxo-5-((4-(p-tolyl)piperazin-1-yl)methyl)isoindolin-2-yl)piperidine-2,6-dione] | A (0% ≤ substrate protein remaining % ≤ 80%) | 500 to 1000 nM | 1000 to 1500 nM | A (0% ≤ substrate protein remaining % ≤ 80%) | A (0% ≤ substrate protein remaining % ≤ 80%) | 100 to 500 nM | 100 to 500 nM | 5 to 10 nM | 10 to 50 nM | 10 to 50 nM | A (0% ≤ substrate protein remaining % ≤ 80%) | A (0% ≤ substrate protein remaining % ≤ 80%) | 5 to 10 nM | 5 to 10 nM | 5 to 10 nM | A (0% ≤ substrate protein remaining % ≤ 80%) | 100 to 500 nM | 100 to 500 nM
O=C1CCC(N2Cc3cc(CN4CCN(c5cccc(F)c5)CC4)ccc3C2=O)C(=O)N1 (stereo not shown) [GT-04452, 3-(5-((4-(3-fluorophenyl)piperazin-1-yl)methyl)-1-oxoisoindolin-2-yl)piperidine-2,6-dione] | A (0% ≤ substrate protein remaining % ≤ 80%) | 100 to 500 nM | 500 to 1000 nM | B (80%< substrate protein remaining %≤ 100%) | B (80%< substrate protein remaining %≤ 100%) | 100 to 500 nM | 100 to 500 nM | 5 to 10 nM | 10 to 50 nM | 10 to 50 nM | B (80%< substrate protein remaining %≤ 100%) | A (0% ≤ substrate protein remaining % ≤ 80%) | 5 to 10 nM | 5 to 10 nM | 10 to 50 nM | A (0% ≤ substrate protein remaining % ≤ 80%) | 100 to 500 nM | 100 to 500 nM
O=C1CCC(N2Cc3cc(CN4CCC(c5cccc(Br)c5)CC4)ccc3C2=O)C(=O)N1 (stereo not shown) [GT-04466, 3-(5-((4-(3-bromophenyl)piperidin-1-yl)methyl)-1-oxoisoindolin-2-yl)piperidine-2,6-dione] | A (0% ≤ substrate protein remaining % ≤ 80%) | 50 to 100 nM | 500 to 1000 nM | A (0% ≤ substrate protein remaining % ≤ 80%) | A (0% ≤ substrate protein remaining % ≤ 80%) | 10 to 50 nM | 10 to 50 nM | 1 to 5 nM | 5 to 10 nM | 10 to 50 nM | A (0% ≤ substrate protein remaining % ≤ 80%) | A (0% ≤ substrate protein remaining % ≤ 80%) | 1 to 5 nM | 1 to 5 nM | 1 to 5 nM | A (0% ≤ substrate protein remaining % ≤ 80%) | 50 to 100 nM | 10 to 50 nM
O=C1CCC(N2Cc3cc(CN4CCN(c5ccc(Cl)c(Cl)c5)CC4)ccc3C2=O)C(=O)N1 (stereo not shown) [GT-04437, 3-(5-((4-(3,4-dichlorophenyl)piperazin-1-yl)methyl)-1-oxoisoindolin-2-yl)piperidine-2,6-dione] | A (0% ≤ substrate protein remaining % ≤ 80%) | 100 to 500 nM | 500 to 1000 nM | A (0% ≤ substrate protein remaining % ≤ 80%) | A (0% ≤ substrate protein remaining % ≤ 80%) | 50 to 100 nM | 100 to 500 nM | 5 to 10 nM | 10 to 50 nM | 10 to 50 nM | A (0% ≤ substrate protein remaining % ≤ 80%) | A (0% ≤ substrate protein remaining % ≤ 80%) | 1 to 5 nM | 1 to 5 nM | 5 to 10 nM | A (0% ≤ substrate protein remaining % ≤ 80%) | 50 to 100 nM | 50 to 100 nM
O=C1CCC(N2Cc3cc(CN4CC=C(c5cccs5)CC4)ccc3C2=O)C(=O)N1 (stereo not shown) [GT-04494, 3-(1-oxo-5-((4-(thiophen-2-yl)-3,6-dihydropyridin-1(2H)-yl)methyl)isoindolin-2-yl)piperidine-2,6-dione] | A (0% ≤ substrate protein remaining % ≤ 80%) | 5 to 10 nM | < 500 nM | A (0% ≤ substrate protein remaining % ≤ 80%) | B (80%< substrate protein remaining %≤ 100%) | 5 to 10 nM | 10 to 50 nM | 1 to 5 nM | 1 to 5 nM | 1 to 5 nM | B (80%< substrate protein remaining %≤ 100%) | A (0% ≤ substrate protein remaining % ≤ 80%) | 1 to 5 nM | < 1 nM | < 1 nM | A (0% ≤ substrate protein remaining % ≤ 80%) | 10 to 50 nM | 10 to 50 nM
O=C1CCC(N2Cc3cc(CN4CCC(c5ccccc5F)CC4)ccc3C2=O)C(=O)N1 (stereo not shown) [GT-04470, 3-(5-((4-(2-fluorophenyl)piperidin-1-yl)methyl)-1-oxoisoindolin-2-yl)piperidine-2,6-dione] | A (0% ≤ substrate protein remaining % ≤ 80%) | 500 to 1000 nM | 500 to 1000 nM | A (0% ≤ substrate protein remaining % ≤ 80%) | A (0% ≤ substrate protein remaining % ≤ 80%) | 100 to 500 nM | – | 10 to 50 nM | 10 to 50 nM | 50 to 100 nM | A (0% ≤ substrate protein remaining % ≤ 80%) | A (0% ≤ substrate protein remaining % ≤ 80%) | 10 to 50 nM | 5 to 10 nM | 10 to 50 nM | A (0% ≤ substrate protein remaining % ≤ 80%) | 100 to 500 nM | 500 to 1000 nM
O=C1CCC(N2Cc3cc(CN4CCC(c5cccc(C(F)(F)F)c5)CC4)ccc3C2=O)C(=O)N1 (stereo not shown) [GT-04472, 3-(1-oxo-5-((4-(3-(trifluoromethyl)phenyl)piperidin-1-yl)methyl)isoindolin-2-yl)piperidine-2,6-dione] | A (0% ≤ substrate protein remaining % ≤ 80%) | 50 to 100 nM | 500 to 1000 nM | A (0% ≤ substrate protein remaining % ≤ 80%) | A (0% ≤ substrate protein remaining % ≤ 80%) | 10 to 50 nM | – | 1 to 5 nM | 5 to 10 nM | 10 to 50 nM | A (0% ≤ substrate protein remaining % ≤ 80%) | A (0% ≤ substrate protein remaining % ≤ 80%) | 1 to 5 nM | 1 to 5 nM | 1 to 5 nM | B (80%< substrate protein remaining %≤ 100%) | 50 to 100 nM | 10 to 50 nM
